Source: PubChem BioAssay AID330 (DTP/NCI, 2004)
Toxic doses and inconclusive results are not listed.

Tested on: P388 leukemia ip, CD2F1 mice, survival T/C
Assay: NCI In Vivo Anticancer Drug Screen. Data for tumor model P388 Leukemia (intraperitoneal) in CD2F1 (CDF1) mice
Conditions: endpoint: median survival time, higher = longer survival
How it was run: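 Mice carrying the transplanted tumor received test compound or vehicle. Survival was recorded in each group, and the value is the treated-group measurement divided by that of the vehicle-treated control group.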

[1] = dose: 50.0 mg/kg/injection, schedule: Q01DX009 (ip), vehicle: saline with Tween-80
[2] = dose: 100.0 mg/kg/injection, schedule: Q01DX009 (ip), vehicle: saline with Tween-80
[3] = dose: 50.0 mg/kg/injection, schedule: Q01DX005 (ip), vehicle: saline with Tween-80
[4] = dose: 100.0 mg/kg/injection, schedule: Q01DX005 (ip), vehicle: saline with Tween-80
[5] = dose: 200.0 mg/kg/injection, schedule: Q01DX005 (ip), vehicle: saline with Tween-80
[6] = dose: 60.0 mg/kg/injection, schedule: Q01DX005 (ip), vehicle: saline with Tween-80
[7] = dose: 120.0 mg/kg/injection, schedule: Q01DX005 (ip), vehicle: saline with Tween-80

COc1ccc2c(c1)CSC(c1ccccc1)=C2
T/C [1]: 100 % of control
T/C [2]: 93 % of control
T/C (dose: 200.0 mg/kg/injection, schedule: Q01DX009 (ip), vehicle: saline with Tween-80): 94 % of control
T/C (dose: 400.0 mg/kg/injection, schedule: Q01DX009 (ip), vehicle: saline with Tween-80): 92 % of control

C=C1C(=O)OC2CC3(C)C=CC(=O)C(=C)C3CC12 (stereo not drawn)
T/C (dose: 12.5 mg/kg/injection, schedule: Q04DX003 (ip), vehicle: Klucel (hydroxypropylcellulose) (HPC)): 104 % of control
T/C (dose: 25.0 mg/kg/injection, schedule: Q04DX003 (ip), vehicle: Klucel (hydroxypropylcellulose) (HPC)): 114 % of control

O=C(Nc1ccc(Cl)c(Cl)c1)NN1CCCCCC1
T/C [3]: 103 % of control
T/C [4]: 103 % of control
T/C [5]: 101 % of control

Cc1c(O)c(O)c2c(c1O)N=C(Cl)/C2=C\N=NC(N)=S
T/C (dose: 100.0 mg/kg/injection, schedule: Q01DX001 (ip), vehicle: Klucel (hydroxypropylcellulose) (HPC)): 99 % of control
T/C (dose: 200.0 mg/kg/injection, schedule: Q01DX001 (ip), vehicle: Klucel (hydroxypropylcellulose) (HPC)): 95 % of control
T/C (dose: 400.0 mg/kg/injection, schedule: Q01DX001 (ip), vehicle: Klucel (hydroxypropylcellulose) (HPC)): 106 % of control

CCCCC1C(C#N)C(=O)NC(=O)C1C#N (stereo not drawn)
T/C (dose: 50.0 mg/kg/injection, schedule: Q01DX009 (ip), vehicle: Klucel (hydroxypropylcellulose) (HPC)): 100 % of control
T/C (dose: 100.0 mg/kg/injection, schedule: Q01DX009 (ip), vehicle: Klucel (hydroxypropylcellulose) (HPC)): 95 % of control
T/C (dose: 200.0 mg/kg/injection, schedule: Q01DX009 (ip), vehicle: Klucel (hydroxypropylcellulose) (HPC)): 99 % of control

CCc1nc(N)nc(N)c1-c1ccc([N+](C)(C)C)cc1
T/C (dose: 6.25 mg/kg/injection, schedule: Q01DX005 (ip), vehicle: Klucel (hydroxypropylcellulose) (HPC)): 101 % of control
T/C (dose: 12.5 mg/kg/injection, schedule: Q01DX005 (ip), vehicle: Klucel (hydroxypropylcellulose) (HPC)): 101 % of control
T/C (dose: 25.0 mg/kg/injection, schedule: Q01DX005 (ip), vehicle: Klucel (hydroxypropylcellulose) (HPC)): 103 % of control

O=C(CC1(O)C(=O)N(CN2CCCCC2)c2ccccc21)c1ccccc1 (stereo not drawn)
T/C [1]: 110 % of control
T/C [2]: 97 % of control

OC1CN(Cc2ccccc2)C[C@@H]1O (stereo partly drawn)
T/C (dose: 60.0 mg/kg/injection, schedule: Q01DX005 (ip), vehicle: saline): 100 % of control
T/C (dose: 120.0 mg/kg/injection, schedule: Q01DX005 (ip), vehicle: saline): 96 % of control

CCOc1cccs1
T/C [6]: 102 % of control
T/C [7]: 100 % of control

C[N+](C)=c1ccc2nc3c(cc(Nc4ccccc4)c4ccccc43)oc-2c1
T/C (dose: 60.0 mg/kg/injection, schedule: Q01DX005 (ip), vehicle: Klucel (hydroxypropylcellulose) (HPC)): 88 % of control
T/C (dose: 120.0 mg/kg/injection, schedule: Q01DX005 (ip), vehicle: Klucel (hydroxypropylcellulose) (HPC)): 91 % of control
T/C (dose: 240.0 mg/kg/injection, schedule: Q01DX005 (ip), vehicle: Klucel (hydroxypropylcellulose) (HPC)): 103 % of control

Cc1ccccc1Nc1n[nH]c(=S)s1
T/C (dose: 50.0 mg/kg/injection, schedule: Q04DX003 (ip), vehicle: saline with Tween-80): 95 % of control
T/C (dose: 100.0 mg/kg/injection, schedule: Q04DX003 (ip), vehicle: saline with Tween-80): 100 % of control
T/C (dose: 200.0 mg/kg/injection, schedule: Q04DX003 (ip), vehicle: saline with Tween-80): 95 % of control

OCC1CCN(CCOCc2ccccc2)C1 (stereo not drawn)
T/C [6]: 94 % of control
T/C [7]: 102 % of control

CCOC(=O)/C=C(\Br)C(=O)OCC
T/C (dose: 3.15 mg/kg/injection, schedule: Q01DX009 (ip), vehicle: saline with Tween-80): 108 % of control
T/C (dose: 6.25 mg/kg/injection, schedule: Q01DX009 (ip), vehicle: saline with Tween-80): 99 % of control
T/C (dose: 12.5 mg/kg/injection, schedule: Q01DX009 (ip), vehicle: saline with Tween-80): 119 % of control

O=C(C=C(C(F)(F)F)C(F)(F)F)c1ccc([N+](=O)[O-])cc1
T/C (dose: 3.13 mg/kg/injection, schedule: Q04DX003 (ip), vehicle: other): 100 % of control
T/C (dose: 6.25 mg/kg/injection, schedule: Q04DX003 (ip), vehicle: other): 109 % of control
T/C (dose: 12.5 mg/kg/injection, schedule: Q04DX003 (ip), vehicle: other): 118 % of control

OCc1nc(-c2ccccc2)sc1-c1cnc2ccccc2n1
T/C (dose: 100.0 mg/kg/injection, schedule: Q04DX002 (ip), vehicle: Klucel (hydroxypropylcellulose) (HPC)): 104 % of control
T/C (dose: 200.0 mg/kg/injection, schedule: Q04DX002 (ip), vehicle: Klucel (hydroxypropylcellulose) (HPC)): 99 % of control
T/C (dose: 400.0 mg/kg/injection, schedule: Q04DX002 (ip), vehicle: Klucel (hydroxypropylcellulose) (HPC)): 101 % of control

CC(C)=CC(=O)OCCN(C)C
T/C (dose: 50.0 mg/kg/injection, schedule: Q01DX009 (ip), vehicle: saline): 109 % of control
T/C (dose: 100.0 mg/kg/injection, schedule: Q01DX009 (ip), vehicle: saline): 93 % of control
T/C (dose: 200.0 mg/kg/injection, schedule: Q01DX009 (ip), vehicle: saline): 93 % of control

CCCc1[nH]nc(-c2n[nH]c(CCC)c2CC)c1CC
T/C [6]: 101 % of control
T/C [7]: 93 % of control
T/C (dose: 240.0 mg/kg/injection, schedule: Q01DX005 (ip), vehicle: saline with Tween-80): 110 % of control

O=C(NNC1CCN(Cc2ccccc2)CC1)c1ccccc1
T/C (dose: 10.0 mg/kg/injection, schedule: Q04DX003 (ip), vehicle: saline with Tween-80): 100 % of control
T/C (dose: 20.0 mg/kg/injection, schedule: Q04DX003 (ip), vehicle: saline with Tween-80): 95 % of control

C=CC(C1=CC(=O)C(OC)=CC1=O)c1ccccc1 (stereo not drawn)
T/C (dose: 2.5 mg/kg/injection, schedule: Q01DX009 (ip), vehicle: saline with Tween-80): 101 % of control
T/C (dose: 5.0 mg/kg/injection, schedule: Q01DX009 (ip), vehicle: saline with Tween-80): 103 % of control
T/C (dose: 10.0 mg/kg/injection, schedule: Q01DX009 (ip), vehicle: saline with Tween-80): 102 % of control

CCOC(=O)Nc1nc2ccc(C(=O)OCC)cc2[nH]1
T/C (dose: 100.0 mg/kg/injection, schedule: Q04DX003 (ip), vehicle: saline): 108 % of control
T/C (dose: 200.0 mg/kg/injection, schedule: Q04DX003 (ip), vehicle: saline): 101 % of control
T/C (dose: 400.0 mg/kg/injection, schedule: Q04DX003 (ip), vehicle: saline): 108 % of control

COc1ccc(N(C)C(=O)c2ccccc2S(=O)(=O)c2ccccc2C(=O)N(C)c2ccc(OC)cc2)cc1
T/C [3]: 104 % of control
T/C [4]: 98 % of control
T/C [5]: 100 % of control
